Laboratory results from publication PMC4778124, “A continuous sirtuin activity assay without any coupling to enzymatic or chemical reactions” (Scientific Reports, 2016).
Non-standard residues stand in square brackets, D forms with d. Residues, ends and D or L forms follow the SMILES beside them. Groups on a side chain read outwards from the residue. Lys(thiomyristoyl) = CCCCCCCCCCCCCC(=S)NCCCC[C@H](N)C(=O)O; Tyr(3-NO2) = N[C@@H](Cc1ccc(O)c([N+](=O)[O-])c1)C(=O)O; Aun = NCCCCCCCCCCC(=O)O; 2Abz = Nc1ccccc1C(=O)O

Assays:
Type in all cases: biochemical
Sirt2 = biological target: T1, Sirt2 (Homo sapiens, UniProt Q8IXJ6); test: Ki determination with substrate 3, 96-well MTP fluorescence reader; settings: Sirt2 0.01 µM; varying substrate 3, 500 µM NAD+; read-out: Ki (3)
T1 construct: made in house
T1 sequence (Q8IXJ6 1-389): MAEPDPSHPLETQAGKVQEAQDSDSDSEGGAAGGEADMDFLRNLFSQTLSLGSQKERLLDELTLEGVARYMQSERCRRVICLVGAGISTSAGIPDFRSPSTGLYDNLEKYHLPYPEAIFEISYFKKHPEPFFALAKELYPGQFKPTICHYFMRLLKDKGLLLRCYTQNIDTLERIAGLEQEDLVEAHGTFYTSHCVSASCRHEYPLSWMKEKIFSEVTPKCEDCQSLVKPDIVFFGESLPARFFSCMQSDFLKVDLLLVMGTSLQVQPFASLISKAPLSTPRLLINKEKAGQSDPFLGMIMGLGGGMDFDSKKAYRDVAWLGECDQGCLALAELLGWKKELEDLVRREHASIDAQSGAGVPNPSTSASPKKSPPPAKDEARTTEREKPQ
Protocol: The microtiter plate fluorescence measurements were performed on a Tecan Infinite M200 microplate reader (Maennedorf, Switzerland) at λEx = 320 nm and λEm = 408 nm (lag time 9 μs, integration time […], gain 160, 170 or 182). The reactions (total volume 100 μl) were measured in black low-binding 96-well microtiter plates (NUNC). Assay-buffer, 500 μM NAD^+ and 0.07–200 μM peptide substrate were pre-incubated at 37 °C for 5 min. The reaction was started by adding human sirtuin (0.01–0.5 μM). The signals were converted into product concentration via calibration lines and the resulting data were evaluated as described above (single fluorescence measurement). The determination for the kinetic constants of NAD^+ was performed in the same way, except that the peptide concentration was fixed (5, 25 or 200 μM) and the NAD^+ concentration was varied (10–1500 μM). All measurements were done in duplicates. The reaction mixture for the calibration lines was prepared as described for the single fluorescence measurements. […] The resulting plots were analyzed by a competitive inhibition and non-competitive inhibition model using the program Sigma Plot 8. The linear regression of the apparent KM-values against the corresponding inhibitor concentration yielded the inhibitor constant Ki for competitive inhibition. The Ki for non-competitive inhibition was determined by linear regression of 1/apparent Vmax against the corresponding inhibitor concentration. The negative Ki value can be determined as intersection with the X-axis from these plots.
Supplementary Figure S15. Kinetic characteristics for sirtuin inhibitor 8. The reactions were performed with 0.01 µM Sirt2 /0.1 µM Sirt3 /0.5 µM Sirt6 and 500 µM NAD^+ and varying concentrations of 3 (0.07-100 µM). […] The negative Ki value can be determined as intersection with the X-axis from the Vmax^app-1/I plot.
Supplementary Figure S16. […] The negative Ki value can be determined as intersection with the X-axis from the Vmax^app-1/I plot.
Supplementary Figure S17. […] The negative Ki value can be determined as intersection with the X-axis from the Vmax^app-1/I plot.

Sirt3 [1] = biological target: T2, Sirt3 (Homo sapiens, UniProt Q9NTG7); test: as above; settings: Sirt3 0.1 µM; varying substrate 3, 500 µM NAD+ (saturating)
T2 construct: made in house
T2 sequence (Q9NTG7 1-399): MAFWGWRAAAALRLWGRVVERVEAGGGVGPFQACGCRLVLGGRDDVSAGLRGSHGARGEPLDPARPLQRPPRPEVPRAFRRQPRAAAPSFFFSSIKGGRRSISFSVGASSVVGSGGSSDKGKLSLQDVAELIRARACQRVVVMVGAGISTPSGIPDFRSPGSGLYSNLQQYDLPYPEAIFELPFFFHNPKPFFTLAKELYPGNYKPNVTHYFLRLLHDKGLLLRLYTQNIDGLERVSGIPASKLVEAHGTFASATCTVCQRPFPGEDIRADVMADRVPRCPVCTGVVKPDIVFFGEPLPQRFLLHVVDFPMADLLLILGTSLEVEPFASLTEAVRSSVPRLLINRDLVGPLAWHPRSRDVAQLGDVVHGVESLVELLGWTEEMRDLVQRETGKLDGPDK
Protocol: (§1) All measurements were done in duplicates.
(§2) Supplementary Figure S13. […] Data are presented as mean ± s.d. (n=2) and lines represent the Michaelis-Menten-plot (left) and secondary plots (right). The apparent KM or Vmax^app-1 values from v/[S] characteristics were plotted against the corresponding inhibitor concentration.
(§3) Supplementary Figure S15. Kinetic characteristics for sirtuin inhibitor 8. The reactions were performed with 0.01 µM Sirt2 /0.1 µM Sirt3 /0.5 µM Sirt6 and 500 µM NAD^+ and varying concentrations of 3 (0.07-100 µM). […] Data are presented as mean ± s.d. (n=2) and lines represent the Michaelis-Menten-plot (left) and secondary plots (right). The apparent Vmax^app-1 values from v/[S] characteristics were plotted against the corresponding inhibitor concentration.

Sirt6 [2] = biological target: T3, Sirt6 (Homo sapiens, UniProt Q8N6T7); test: as above; settings: Sirt6 0.5 µM; varying substrate 3, 500 µM NAD+ (saturating)
T3 construct: His-tag; made in house; host or cells: E. coli BL21 DE3
T3 sequence (Q8N6T7 whole entry): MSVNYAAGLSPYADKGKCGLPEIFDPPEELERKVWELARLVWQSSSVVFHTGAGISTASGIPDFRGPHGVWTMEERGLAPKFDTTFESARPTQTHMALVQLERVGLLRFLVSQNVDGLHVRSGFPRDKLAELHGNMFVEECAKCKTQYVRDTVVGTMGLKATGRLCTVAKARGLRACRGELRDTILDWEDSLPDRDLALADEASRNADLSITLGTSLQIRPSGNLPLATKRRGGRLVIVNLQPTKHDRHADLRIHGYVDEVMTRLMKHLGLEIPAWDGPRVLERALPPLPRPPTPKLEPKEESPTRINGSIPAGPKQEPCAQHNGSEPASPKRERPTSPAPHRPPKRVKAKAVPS
Protocol: as §1, §2
Supplementary Figure S14. […] The reactions were performed with 0.5 µM Sirt6 and either 500 µM NAD^+ and varying concentrations of 3 (2-100 µM). […] Data are presented as mean ± s.d. (n=2) and lines represent the Michaelis-Menten-plot (left) and secondary plots (right). The apparent Vmax^app-1 values from v/[S] characteristics were plotted against the corresponding inhibitor concentration.
as §3

Sirt6 [3] = biological target: T3, Sirt6; test: Isomer specific inhibition by thioxo peptides, HPLC; settings: substrate 2a, 30 min, 20 °C
Protocol: After 30 min incubation at 20 °C reaction was stopped using 10% TFA solution. Inhibitor solutions were irradiated at 254 nm for 5 min. Separated isomers were applied in concentrations from 1 to 10 μM. The influence of cis content on sirtuin inhibition using fluorescence spectrometer was determined with 500 μM NAD^+, 5 μM 3, 0.1 μM Sirt2 and 0.1 μM 9. Reactions were done at 20 °C with 9 in GS and PSS (after 5 min irradiation at 254 nm). 9 in PSS was applied immediately after irradiation (transfer time ~5 s) and started directly by adding sirtuin. Reactions were measured within 1 min to avoid re-isomerization.
Supplementary Figure S36. Determination of IC50 value of 8 for Sirt6 in GS (?) and PSS (π). Data were fitted with U(%) = Umin(%) + (Umax(%) – Umin(%))/(1+10^(x-logIC50)) with U(%) percental turmover of substrate 2a; Umin(%) lowest turnover of substrate; Umax(%) maximal turnover of substrate (n=3).
Supplementary Figure S37. Inhibition of Sirt6 by 8 (?) and 9 (π).Data were fitted with U(%) = Umin(%) + (Umax(%) – Umin(%))/(1+10^(x-logIC50)) with U(%) percental turmover of substrate; Umin(%) lowest turnover of substrate 2a; Umax(%) maximal turnover of substrate (n=3).
Supplementary Figure S38. Determination of IC50 of 9 for Sirt6 with 72.4 % cis- (π) and 70.3 % (?) trans-content. Measurements were done with 10 µM peptide substrate (big figure) or 30 µM (small figure). Data were fitted with U(%) = Umin(%) + (Umax(%) – Umin(%))/(1+10^(x-logIC50)) with U(%) percental turmover of substrate 2a; Umin(%) lowest turnover of substrate; Umax(%) maximal turnover of substrate (n=3).

Sirt3 [4] = biological target: T2, Sirt3; test: Continuous fluorescence assay, substrate kinetics; settings: Sirt3 100 nM; fluorescence spectrophotometer (footnote a)
Protocol: (§4) The fluorescence measurements were performed on a Hitachi F-4500 fluorescence spectrophotometer (Tokyo, Japan) at λEx = 310 nm and λEm = 405 nm (slitEx = 5 nm, slitEm = 2.5 nm, PMT = 700 V for 3, 4 and 5 as well as slitEx = 10 nm, slitEm = 10 nm, PMT = 950 V for 4a). Each reaction mixture contained assay-buffer, 0.5 mM NAD^+ and various peptide concentrations (0.1–100 μM) and was preincubated for 5 minutes at 37 °C. The reaction was started by adding human sirtuin (0.1–0.5 μM) and observed for 5–10 minutes. Product formation could be monitored by increase of relative fluorescence. This signal was converted into product concentration via calibration lines. […] The reaction mixture was analyzed with HPLC, to control if the entire peptide substrate was turned to product. Additionally the mixture was diluted (0.1–25 μM) and measured with Hitachi F-4500 fluorescence spectrophotometer at the same conditions as described above.
(§5) The microtiter plate fluorescence measurements were performed on a Tecan Infinite M200 microplate reader (Maennedorf, Switzerland) at λEx = 320 nm and λEm = 408 nm (lag time 9 μs, integration time […], gain 160, 170 or 182). The reactions (total volume 100 μl) were measured in black low-binding 96-well microtiter plates (NUNC). […] The reaction mixture for the calibration lines was prepared as described for the single fluorescence measurements. […]

Sirt5 = biological target: T4, Sirt5 (Homo sapiens, UniProt Q9NXA8); test: Continuous fluorescence assay, substrate kinetics; settings: Sirt5 500 nM; MTP fluorescence reader (footnote b)
T4 construct: made in house
T4 sequence (Q9NXA8 37-310): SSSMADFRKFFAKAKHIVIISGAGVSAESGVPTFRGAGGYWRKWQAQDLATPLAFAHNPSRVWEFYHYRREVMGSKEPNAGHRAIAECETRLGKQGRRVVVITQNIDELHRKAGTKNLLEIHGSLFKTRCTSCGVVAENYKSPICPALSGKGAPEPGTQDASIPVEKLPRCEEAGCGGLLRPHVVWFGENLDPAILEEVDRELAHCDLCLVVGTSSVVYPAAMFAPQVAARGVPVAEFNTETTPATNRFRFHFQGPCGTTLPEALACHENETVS
Protocol: as §4, §5

Sirt4 = biological target: T5, Sirt4 (Homo sapiens, UniProt Q9Y6E7); test: Continuous fluorescence assay, substrate kinetics; settings: Sirt4 1000 nM; fluorescence spectrophotometer (footnote a)
T5 construct: made in house; host or cells: E. coli BL21 (DE3)
T5 sequence (Q9Y6E7 29-314): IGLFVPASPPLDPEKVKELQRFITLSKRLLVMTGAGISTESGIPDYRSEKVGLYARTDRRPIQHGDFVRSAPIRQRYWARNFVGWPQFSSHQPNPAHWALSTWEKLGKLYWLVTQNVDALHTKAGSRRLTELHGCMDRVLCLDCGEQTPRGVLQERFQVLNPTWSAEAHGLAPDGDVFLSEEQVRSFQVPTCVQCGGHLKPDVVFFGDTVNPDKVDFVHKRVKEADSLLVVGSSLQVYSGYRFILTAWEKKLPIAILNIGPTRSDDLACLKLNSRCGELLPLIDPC
Protocol: as §4, with “The reaction was started by adding human sirtuin (0.1–0.5 μM) and observed for 5–10 minutes.” left out, “lines. The slope of the linear regression of product formation against time yielded the reaction velocity rates in μM/s.” for “lines.”
as §5

Ki (Sirt2)	Ki (Sirt3 [1])	Ki (Sirt6 [2])	IC50 (Sirt6 [3]; inhibitor with 2.5% cis isomer (ground state))	IC50 (Sirt6 [3]; inhibitor with 25% cis isomer (photo-excited state))	Structure (SMILES)	Km (Sirt3 [4])	Km (Sirt5)	Km (Sirt4)
80 ± 20 nM	100 ± 20 nM	400 ± 100 nM	1060 ± 120 nM	1870 ± 180 nM	CCCCCCCCCCCCCC(=S)NCCCC[C@H](NC(=O)[C@H](CCCCN)NC(=O)[C@@H]1CCCN1C(=O)[C@H](CC(C)C)NC(=O)[C@H](C)NC(=O)[C@H](CCC(=O)O)NC(C)=O)C(=O)N[C@H](C(=O)NCC(=O)NCC(N)=O)[C@@H](C)O [peptide 8] (Ac-EALPK[Lys(thiomyristoyl)]TGG-NH2)	–	–	–
–	–	–	–	–	CC(=O)N[C@@H](CCC(=O)O)C(=O)N[C@@H](C)C(=O)N[C@@H](CC(C)C)C(=O)N1CCC[C@H]1C(=O)N[C@@H](CCCCN)C(=O)N[C@@H](CCCCNC(=O)CCCCCCCCCCNC(=O)c1ccccc1N)C(=O)N[C@@H](Cc1ccc(O)c([N+](=O)[O-])c1)C(=O)NCC(=O)NCC(N)=O [peptide 3] (Ac-EALPKK([Aun-2Abz])[Tyr(3-NO2)]GG-NH2)	3.3 ± 0.4 µM	46.1 ± 7.2 µM	49.5 ± 7.5 µM
